Measurements as given in patent US7915292B2, “Antibacterial quinoline derivatives” (Janssen Pharmaceutica NV, priority 2005, dated 2011).

Tested on: M. Smegmatis ATCC607
Experiment: In-vitro anti-bacterial activity against strain M. smegmatis ATCC607 (Alamar Blue growth inhibition)
Format: cell-based
Conditions: 48 hours incubation; for IC50: Mycolicibacterium smegmatis, read-out: M. smegmatis pIC50 (converted)
Procedure: Serial five-fold dilutions (45 μl in 180 μl) were made directly in the microtiter plates from column 2 to 11 using a customised robot system (Zymark Corp., Hopkinton, Mass.). Pipette tips were changed after every 3 dilutions to minimize pipetting errors with high hydrophobic compounds. Untreated control samples with (column 1) and without (column 12) inoculum were included in each microtiter plate. Approximately 250 CFU per well of bacteria inoculum, in a volume of 100 μl in 2.8× Mueller-Hinton broth medium, was added to the rows […]. The same volume of broth medium without inoculum was added to column 12 in row A to H. The cultures were incubated at 37° C. for 48 hours in a humidified 5% CO2 atmosphere (incubator with open air valve and continuous ventilation). At the end of incubation, two days after inoculation, the bacterial growth was quantitated fluorometrically. Therefore Alamar Blue (10×) was added to all wells in a volume of 20 μl and plates were incubated for another 2 hours at […] The fluorescence was read in a computer-controlled fluorometer (Cytofluor, Biosearch) at an excitation wavelength of 530 nm and an emission wavelength of 590 nm (gain 30). The percentage growth inhibition achieved by the compounds was calculated according to standard methods and expressed as pIC50 values.

Compound	M. smegmatis pIC50	IC50
COc1nc2ccc(Br)cc2cc1C(c1ccccc1)N(C)CCN(C)C (stereo not drawn) [Compound 1]	5.1	
CCN(CC)CCN(C)C(c1ccccc1)c1cc2cc(Br)ccc2nc1OC (stereo not drawn) [Compound 2]		2000 nM
COc1nc2ccc(Br)cc2cc1C(c1ccccc1)N(C)CC(=O)N(C)C (stereo not drawn) [Compound 4]	5.1	
COc1nc2ccc(Br)cc2cc1C(c1ccccc1)N(C)CC(=O)N(C)C(C)C (stereo not drawn) [Compound 5]	5.1	
CCCCN(C)C(=O)CN(C)C(c1ccccc1)c1cc2cc(Br)ccc2nc1OC (stereo not drawn) [Compound 6]	5.1	
COc1nc2ccc(Br)cc2cc1C(c1ccccc1)N(C)CC(=O)N(C)CC#N (stereo not drawn) [Compound 7]	4.9	
COc1nc2ccc(Br)cc2cc1C(c1ccccc1)N(C)CC(=O)N(C)CCN(C)C (stereo not drawn) [Compound 8]	5.1	
COc1nc2ccc(Br)cc2cc1C(c1ccccc1)N(C)CC(=O)N(C)CCCN(C)C (stereo not drawn) [Compound 9]	5	
COc1nc2ccc(Br)cc2cc1C(c1ccccc1)N(C)CC(=O)N(C)c1ccccc1C (stereo not drawn) [Compound 10]	4.7	
CCN(Cc1ccncc1)C(=O)CN(C)C(c1ccccc1)c1cc2cc(Br)ccc2nc1OC (stereo not drawn) [Compound 12]	5.1	
COCCN(CCOC)C(=O)CN(C)C(c1ccccc1)c1cc2cc(Br)ccc2nc1OC (stereo not drawn) [Compound 13]	4.6	
COc1nc2ccc(Br)cc2cc1C(c1ccccc1)N(C)CC(=O)N(CCC#N)Cc1cccnc1 (stereo not drawn) [Compound 14]	5.2	
COc1nc2ccc(Br)cc2c(Cl)c1C(c1ccccc1)N(C)CC(=O)N(C)C (stereo not drawn) [Compound 15]	4.8	
COc1nc2ccc(Br)cc2cc1C(c1ccccc1)N(CC(=O)N(C)C)Cc1ccccc1 (stereo not drawn) [Compound 24]	5.1	
COc1nc2ccc(Br)cc2cc1C(c1ccccc1)N(CC(=O)N(C)C)Cc1cccc2ncccc12 (stereo not drawn) [Compound 25]	5.4	
COc1nc2ccc(Br)cc2cc1C(c1ccccc1)N(CC(=O)N(C)C)Cc1ccnc2ccccc12 (stereo not drawn) [Compound 26]	5.7	
COc1nc2ccc(Br)cc2cc1C(c1ccccc1)N(C)CCCN(C)C (stereo not drawn) [Compound 27]	5.5	
COc1nc2ccc(Br)cc2cc1C(c1ccccc1)N(CCCN(C)C)CCCN(C)C (stereo not drawn) [Compound 28]	5.1	
CC(C)N(C)C(=O)CN(Cc1ccccc1)C(c1ccccc1)c1cc2cc(Br)ccc2nc1Oc1ccccc1 (stereo not drawn) [Compound 30]		631 nM
CN(C)C(=O)CN(Cc1ccccc1)C(c1ccccc1)c1cc2ccccc2nc1-c1ccccc1 (stereo not drawn) [Compound 32]	5.7	
CC(C)N(C)C(=O)CN(Cc1ccccc1)C(c1ccccc1)c1cc2ccccc2nc1-c1ccccc1 (stereo not drawn) [Compound 33]	6.5	
CN(C)C(=O)CN(Cc1ccccc1)C(c1cc2ccccc2o1)c1cc2ccccc2nc1-c1ccccc1 (stereo not drawn) [Compound 35]	5.6	
CC(C)N(C)C(=O)CN(Cc1ccccc1)C(c1cc2ccccc2o1)c1cc2ccccc2nc1-c1ccccc1 (stereo not drawn) [Compound 36]		316 nM
Cc1ccc2nc(-c3ccccc3)c(C(c3ccccc3)N(C)CCN(C)C)cc2c1 (stereo not drawn) [Compound 37]		20000 nM
CNC(=O)CN(C)C(c1ccccc1)c1cc2cc(C)ccc2nc1-c1ccccc1 (stereo not drawn) [Compound 38]	4.5	
Cc1ccc2nc(-c3ccccc3)c(C(c3ccccc3)N(C)CC(=O)N(C)C)cc2c1 (stereo not drawn) [Compound 39]	4.5	
CNC(=O)CN(Cc1ccccc1)C(c1ccccc1)c1cc2cc(C)ccc2nc1-c1ccccc1 (stereo not drawn) [Compound 40]	5.6	

Compound	M. smegmatis pIC50	IC50
Cc1ccc2nc(-c3ccccc3)c(C(c3ccccc3)N(CC(=O)NCC3CC3)Cc3ccccc3)cc2c1 (stereo not drawn) [Compound 42]	5.8	
Cc1ccc2nc(-c3ccccc3)c(C(c3ccccc3)N(CC(=O)NC3CCCCC3)Cc3ccccc3)cc2c1 (stereo not drawn) [Compound 43]	5.2	
Cc1ccc2nc(-c3ccccc3)c(C(c3ccccc3)N(CC(=O)NN3CCOCC3)Cc3ccccc3)cc2c1 (stereo not drawn) [Compound 44]	5.1	
COCCN(CCOC)C(=O)CN(Cc1ccccc1)C(c1ccccc1)c1cc2cc(C)ccc2nc1-c1ccccc1 (stereo not drawn) [Compound 50]	5.8	
O=C(CN(Cc1ccccc1)C(c1cccnc1)c1cc2ccccc2nc1-c1ccccc1)N1CCSCC1 (stereo not drawn) [Compound 56]	5.8	
O=C(CN(Cc1ccccc1)C(c1cc2ccccc2o1)c1cc2ccccc2nc1-c1ccccc1)N1CCCC1 (stereo not drawn) [Compound 57]	5.9	
O=C(CN(Cc1ccccc1)C(c1cc2ccccc2o1)c1cc2ccccc2nc1-c1ccccc1)N1CCSCC1 (stereo not drawn) [Compound 58]	6.1	
COc1nc2ccc(C)cc2cc1C(c1ccccc1)N(CCC(=O)N1CCOCC1)Cc1ccccc1 (stereo not drawn) [Compound 60]	5.3	
Cc1ccc2nc(-c3ccccc3)c(C(c3ccccc3)N(C)CC(=O)N3CCN(C)CC3)cc2c1 (stereo not drawn) [Compound 62]	5.1	
Cc1ccc2nc(-c3ccccc3)c(C(c3ccccc3)N(C)CC(=O)N3CCOCC3)cc2c1 (stereo not drawn) [Compound 63]	5.1	
COc1nc2ccc(Br)cc2cc1C(c1ccccc1)N(C)CC(=O)N1CCCC1 (stereo not drawn) [Compound 80]	5.1	
COc1nc2ccc(Br)cc2cc1C(c1ccccc1)N(C)CC(=O)N1CCSC1 (stereo not drawn) [Compound 81]	5	
COc1nc2ccc(Br)cc2cc1C(c1ccccc1)N(C)CC(=O)N1CCCCC1 (stereo not drawn) [Compound 82]	4.4	
COc1nc2ccc(Br)cc2cc1C(c1ccccc1)N(C)CC(=O)N1CCC(C)CC1 (stereo not drawn) [Compound 83]		2510 nM
COc1nc2ccc(Br)cc2cc1C(c1ccccc1)N(C)CC(=O)N1CCCN(C)CC1 (stereo not drawn) [Compound 84]	5.1	
COc1nc2ccc(Br)cc2cc1C(c1ccccc1)N(C)CC(=O)N1CC=CCC1 (stereo not drawn) [Compound 85]	5.1	
COc1nc2ccc(Br)cc2cc1C(c1ccccc1)N(C)CC(=O)N1CCOCC1 (stereo not drawn) [Compound 86]	4.9	
COc1nc2ccc(Br)cc2cc1C(c1ccccc1)N(C)CC(=O)N1CC(C)OC(C)C1 (stereo not drawn) [Compound 87]	5.1	
COc1nc2ccc(Br)cc2cc1C(c1ccccc1)N(C)CC(=O)N1CCN(C)CC1 (stereo not drawn) [Compound 89]	5	
COc1nc2ccc(Br)cc2cc1C(c1ccccc1)N(C)CC(=O)N1CCN(Cc2ccccc2)CC1 (stereo not drawn) [Compound 91]	4.1	
COc1nc2ccc(Br)cc2cc1C(c1ccccc1)N(C)CC(=O)N1CCN(c2ccccn2)CC1 (stereo not drawn) [Compound 92]	5.1	
COc1nc2ccc(Br)cc2cc1C(c1ccccc1)N(C)CC(=O)N1Cc2ccccc2C1 (stereo not drawn) [Compound 95]	4.9	
COc1nc2ccc(Br)cc2c(Cl)c1C(c1ccccc1)N(C)CC(=O)N1CCOCC1 (stereo not drawn) [Compound 96]	5.2	
COc1nc2ccc(Br)cc2cc1C(c1ccccc1)N(CC(=O)N1CCOCC1)C(C)C (stereo not drawn) [Compound 98]	5.3	
COc1nc2ccc(Br)cc2cc1C(c1ccccc1)N(CC(=O)N1CCOCC1)Cc1ccco1 (stereo not drawn) [Compound 101]	4.9	
COc1nc2ccc(Br)cc2cc1C(c1ccccc1)N(CC(=O)N1CCOCC1)Cc1ccccn1 (stereo not drawn) [Compound 110]	5.2	
COc1nc2ccc(Br)cc2cc1C(c1ccccc1)N(CC(=O)N1CCSCC1)Cc1ccc2ccccc2n1 (stereo not drawn) [Compound 113]	4.5	
